# ChEMBL document CHEMBL3885881, “DrugMatrix”
# Organism: Rattus norvegicus
# Experiment: DrugMatrix - Regimen: Daily Repeat
# Assay type: toxicity, organism-based, Sprague-Dawley
# Set-up: regimen Daily Repeat, gender Male, age 6-8 weeks
# Details: in vivo, iv, vehicle 100 % SALINE; for ABSOLUTE BASOPHIL / ABSOLUTE EOSINOPHIL / ABSOLUTE LYMPHOCYTE / ABSOLUTE MONOCYTE / ABSOLUTE SEGMENTED NEUTROPHIL / BASOPHIL / EOSINOPHIL / ERYTHROCYTE COUNT / HEMATOCRIT / HEMOGLOBIN / LEUKOCYTE COUNT / LYMPHOCYTE / MEAN CORPUSCULAR HEMOGLOBIN / MEAN CORPUSCULAR HEMOGLOBIN CONCENTRATION / MEAN CORPUSCULAR VOLUME / MONOCYTE / NEUTROPHIL / NUCLEATED RED BLOOD CELLS / PLATELET COUNT: tissue Blood; for ALANINE AMINOTRANSFERASE / ALBUMIN / ALKALINE PHOSPHATASE / ASPARTATE AMINOTRANSFERASE / BLOOD UREA NITROGEN / CARBON DIOXIDE / CHLORIDE / CHOLESTEROL / CREATINE PHOSPHOKINASE / CREATININE / GLUCOSE / LACTATE DEHYDROGENASE / LIPASE / PHOSPHORUS / POTASSIUM / SODIUM / TOTAL BILIRUBIN / TOTAL PROTEIN / URIC ACID: tissue Plasma
# [1] = 0 mg/kg, 72 h, dose level Control, time 3 day
# [2] = 0 mg/kg, 120 h, dose level Control, time 5 day
# [3] = 20 mg/kg, 72 h, dose level Low, time 3 day
# [4] = 20 mg/kg, 120 h, dose level Low, time 5 day
structure (smiles),measurement,setting,value
CN(N=O)C(=O)N[C@@H](C=O)[C@@H](O)[C@H](O)[C@H](O)CO [STREPTOZOCIN],ABSOLUTE BASOPHIL,[1],0 CELLS/uL
same,ABSOLUTE EOSINOPHIL,[1],247.67 CELLS/uL
same,ABSOLUTE LYMPHOCYTE,[1],13190.83 CELLS/uL
same,ABSOLUTE MONOCYTE,[1],307.67 CELLS/uL
same,ABSOLUTE SEGMENTED NEUTROPHIL,[1],1220.5 CELLS/uL
same,BASOPHIL,[1],0%
same,EOSINOPHIL,[1],1.67%
same,ERYTHROCYTE COUNT,[1],5.47 x10E6/uL
same,HEMATOCRIT,[1],33.98%
same,HEMOGLOBIN,[1],12.65 G/DL
same,LEUKOCYTE COUNT,[1],14.97 x10E3/uL
same,LYMPHOCYTE,[1],88.17%
same,MEAN CORPUSCULAR HEMOGLOBIN,[1],23.17 pg
same,MEAN CORPUSCULAR HEMOGLOBIN CONCENTRATION,[1],37.23 G/DL
same,MEAN CORPUSCULAR VOLUME,[1],62.25 fL
same,MONOCYTE,[1],2%
same,NEUTROPHIL,[1],8.17%
same,NUCLEATED RED BLOOD CELLS,[1],0 /100WBC
same,PLATELET COUNT,[1],1307.17 x10E3/uL
same,ALANINE AMINOTRANSFERASE,[1],39.67 u/L
same,ALBUMIN,[1],4.08 G/DL
same,ALKALINE PHOSPHATASE,[1],383.17 u/L
same,ASPARTATE AMINOTRANSFERASE,[1],88.83 u/L
same,BLOOD UREA NITROGEN,[1],18.5 mg/dL
same,CARBON DIOXIDE,[1],27.5 mmol/L
same,CHLORIDE,[1],103 MEQ/L
same,CHOLESTEROL,[1],67.33 mg/dL
same,CREATINE PHOSPHOKINASE,[1],414.67 u/L
same,CREATININE,[1],0.19 mg/dL
same,GLUCOSE,[1],149.33 mg/dL
same,LACTATE DEHYDROGENASE,[1],536.83 u/L
same,LIPASE,[1],8.83 u/L
same,PHOSPHORUS,[1],11.13 mg/dL
same,POTASSIUM,[1],6.23 MEQ/L
same,SODIUM,[1],144.42 MEQ/L
same,TOTAL BILIRUBIN,[1],0.18 mg/dL
same,TOTAL PROTEIN,[1],5.57 G/DL
same,URIC ACID,[1],1.23 mg/dL
same,ABSOLUTE BASOPHIL,[2],0 CELLS/uL
same,ABSOLUTE EOSINOPHIL,[2],158.83 CELLS/uL
same,ABSOLUTE LYMPHOCYTE,[2],13517.17 CELLS/uL
same,ABSOLUTE MONOCYTE,[2],352.67 CELLS/uL
same,ABSOLUTE SEGMENTED NEUTROPHIL,[2],1104.67 CELLS/uL
same,BASOPHIL,[2],0%
same,EOSINOPHIL,[2],1%
same,ERYTHROCYTE COUNT,[2],5.73 x10E6/uL
same,HEMATOCRIT,[2],36.85%
same,HEMOGLOBIN,[2],13.67 G/DL
same,LEUKOCYTE COUNT,[2],15.13 x10E3/uL
same,LYMPHOCYTE,[2],89.5%
same,MEAN CORPUSCULAR HEMOGLOBIN,[2],23.87 pg
same,MEAN CORPUSCULAR HEMOGLOBIN CONCENTRATION,[2],37.1 G/DL
same,MEAN CORPUSCULAR VOLUME,[2],64.33 fL
same,MONOCYTE,[2],2.33%
same,NEUTROPHIL,[2],7.17%
same,NUCLEATED RED BLOOD CELLS,[2],0.17 /100WBC
same,PLATELET COUNT,[2],1266 x10E3/uL
same,ALANINE AMINOTRANSFERASE,[2],49.17 u/L
same,ALBUMIN,[2],4.22 G/DL
same,ALKALINE PHOSPHATASE,[2],352.67 u/L
same,ASPARTATE AMINOTRANSFERASE,[2],95.17 u/L
same,BLOOD UREA NITROGEN,[2],18.83 mg/dL
same,CARBON DIOXIDE,[2],25.67 mmol/L
same,CHLORIDE,[2],102.67 MEQ/L
same,CHOLESTEROL,[2],66.83 mg/dL
same,CREATINE PHOSPHOKINASE,[2],550.33 u/L
same,CREATININE,[2],0.23 mg/dL
same,GLUCOSE,[2],186.17 mg/dL
same,LACTATE DEHYDROGENASE,[2],471.33 u/L
same,LIPASE,[2],8.67 u/L
same,PHOSPHORUS,[2],12.3 mg/dL
same,POTASSIUM,[2],6.35 MEQ/L
same,SODIUM,[2],143.57 MEQ/L
same,TOTAL BILIRUBIN,[2],0.18 mg/dL
same,TOTAL PROTEIN,[2],6.05 G/DL
same,URIC ACID,[2],2 mg/dL
same,ABSOLUTE BASOPHIL,[3],0 CELLS/uL
same,ABSOLUTE EOSINOPHIL,[3],193 CELLS/uL
same,ABSOLUTE LYMPHOCYTE,[3],10866.33 CELLS/uL
same,ABSOLUTE MONOCYTE,[3],207.67 CELLS/uL
same,ABSOLUTE SEGMENTED NEUTROPHIL,[3],899.67 CELLS/uL
same,BASOPHIL,[3],0%
same,EOSINOPHIL,[3],1.67%
same,ERYTHROCYTE COUNT,[3],5.49 x10E6/uL
same,HEMATOCRIT,[3],33.93%
same,HEMOGLOBIN,[3],12.73 G/DL
same,LEUKOCYTE COUNT,[3],12.17 x10E3/uL
same,LYMPHOCYTE,[3],89.33%
same,MEAN CORPUSCULAR HEMOGLOBIN,[3],23.23 pg
same,MEAN CORPUSCULAR HEMOGLOBIN CONCENTRATION,[3],37.5 G/DL
same,MEAN CORPUSCULAR VOLUME,[3],61.77 fL
same,MONOCYTE,[3],1.67%
same,NEUTROPHIL,[3],7.33%
same,NUCLEATED RED BLOOD CELLS,[3],0.33 /100WBC
same,PLATELET COUNT,[3],1240.67 x10E3/uL
same,ALANINE AMINOTRANSFERASE,[3],42 u/L
same,ALBUMIN,[3],4.1 G/DL
same,ALKALINE PHOSPHATASE,[3],304.33 u/L
same,ASPARTATE AMINOTRANSFERASE,[3],96.33 u/L
same,BLOOD UREA NITROGEN,[3],16 mg/dL
same,CARBON DIOXIDE,[3],25.33 mmol/L
same,CHLORIDE,[3],104 MEQ/L
same,CHOLESTEROL,[3],67 mg/dL
same,CREATINE PHOSPHOKINASE,[3],595 u/L
same,CREATININE,[3],0.25 mg/dL
same,GLUCOSE,[3],148.67 mg/dL
same,LACTATE DEHYDROGENASE,[3],798.67 u/L
same,LIPASE,[3],9.33 u/L
same,PHOSPHORUS,[3],11.97 mg/dL
same,POTASSIUM,[3],6.35 MEQ/L
same,SODIUM,[3],143.3 MEQ/L
same,TOTAL BILIRUBIN,[3],0.17 mg/dL
same,TOTAL PROTEIN,[3],5.4 G/DL
same,URIC ACID,[3],1.33 mg/dL
same,ABSOLUTE BASOPHIL,[4],0 CELLS/uL
same,ABSOLUTE EOSINOPHIL,[4],64 CELLS/uL
same,ABSOLUTE LYMPHOCYTE,[4],13587.67 CELLS/uL
same,ABSOLUTE MONOCYTE,[4],429.67 CELLS/uL
same,ABSOLUTE SEGMENTED NEUTROPHIL,[4],1452 CELLS/uL
same,BASOPHIL,[4],0%
same,EOSINOPHIL,[4],0.33%
same,ERYTHROCYTE COUNT,[4],5.57 x10E6/uL
same,HEMATOCRIT,[4],35.7%
same,HEMOGLOBIN,[4],13.4 G/DL
same,LEUKOCYTE COUNT,[4],15.53 x10E3/uL
same,LYMPHOCYTE,[4],87.33%
same,MEAN CORPUSCULAR HEMOGLOBIN,[4],24.07 pg
same,MEAN CORPUSCULAR HEMOGLOBIN CONCENTRATION,[4],37.53 G/DL
same,MEAN CORPUSCULAR VOLUME,[4],64.17 fL
same,MONOCYTE,[4],2.67%
same,NEUTROPHIL,[4],9.67%
same,NUCLEATED RED BLOOD CELLS,[4],0 /100WBC
same,PLATELET COUNT,[4],1260.33 x10E3/uL
same,ALANINE AMINOTRANSFERASE,[4],54.33 u/L
same,ALBUMIN,[4],4 G/DL
same,ALKALINE PHOSPHATASE,[4],308.67 u/L
same,ASPARTATE AMINOTRANSFERASE,[4],82.33 u/L
same,BLOOD UREA NITROGEN,[4],21 mg/dL
same,CARBON DIOXIDE,[4],26.33 mmol/L
same,CHLORIDE,[4],103.67 MEQ/L
same,CHOLESTEROL,[4],70.33 mg/dL
same,CREATINE PHOSPHOKINASE,[4],420.67 u/L
same,CREATININE,[4],0.21 mg/dL
same,GLUCOSE,[4],181.67 mg/dL
same,LACTATE DEHYDROGENASE,[4],60.33 u/L
same,LIPASE,[4],7.67 u/L
same,PHOSPHORUS,[4],12.23 mg/dL
same,POTASSIUM,[4],6.34 MEQ/L
same,SODIUM,[4],146.17 MEQ/L
same,TOTAL BILIRUBIN,[4],0.17 mg/dL
same,TOTAL PROTEIN,[4],6.03 G/DL
same,URIC ACID,[4],1.87 mg/dL
